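GI50: concentration for 50% inhibition of growth. TGI is the concentration that stops growth completely.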
How the values were obtained:
Assay in all cases: inhibition of tumour cell growth, NCI panel, 384-well format
786-0 renal = test system: 786-0 renal
A498 renal = test system: A498 renal
A549 NSCLC = test system: A549 NSCLC
ACHN renal = test system: ACHN renal
CCRF-CEM leukemia = test system: CCRF-CEM leukemia
COLO 205 colon = test system: COLO 205 colon
DU-145 prostate = test system: DU-145 prostate
EKVX NSCLC = test system: EKVX NSCLC
HCC-2998 colon = test system: HCC-2998 colon
HCT-116 colon = test system: HCT-116 colon
HCT-15 colon = test system: HCT-15 colon
HOP-92 NSCLC = test system: HOP-92 NSCLC
K-562 leukemia = test system: K-562 leukemia
LOX IMVI melanoma = test system: LOX IMVI melanoma
MALME-3M melanoma = test system: MALME-3M melanoma
MDA-MB-231 breast = test system: MDA-MB-231 breast
MDA-MB-435 melanoma = test system: MDA-MB-435 melanoma
MDA-MB-468 breast = test system: MDA-MB-468 breast
MOLT-4 leukemia = test system: MOLT-4 leukemia
NCI-H322M lung = test system: NCI-H322M lung
NCI-H460 NSCLC = test system: NCI-H460 NSCLC
NCI-H522 lung = test system: NCI-H522 lung
OVCAR-3 ovarian = test system: OVCAR-3 ovarian
OVCAR-4 ovarian = test system: OVCAR-4 ovarian
OVCAR-5 ovarian = test system: OVCAR-5 ovarian
OVCAR-8 ovarian = test system: OVCAR-8 ovarian
SF-295 CNS = test system: SF-295 CNS
SF-539 CNS = test system: SF-539 CNS
SK-MEL-28 melanoma = test system: SK-MEL-28 melanoma
SK-MEL-5 melanoma = test system: SK-MEL-5 melanoma
SK-OV-3 ovarian = test system: SK-OV-3 ovarian
SN12C renal = test system: SN12C renal
SNB-19 CNS = test system: SNB-19 CNS
T-47D breast = test system: T-47D breast
TK-10 renal = test system: TK-10 renal
U251 glioblastoma = test system: U251 glioblastoma
UACC-257 melanoma = test system: UACC-257 melanoma
UO-31 renal = test system: UO-31 renal
BT-549 breast = test system: BT-549 breast
CAKI-1 renal = test system: CAKI-1 renal
HL-60(TB) leukemia = test system: HL-60(TB) leukemia
HOP-62 NSCLC = test system: HOP-62 NSCLC
HS 578T breast = test system: HS 578T breast
M14 melanoma = test system: M14 melanoma
MCF7 breast = test system: MCF7 breast
NCI-H23 lung = test system: NCI-H23 lung
NCI/ADR-RES ovarian = test system: NCI/ADR-RES ovarian
PC-3 prostate = test system: PC-3 prostate
SF-268 CNS = test system: SF-268 CNS
SK-MEL-2 melanoma = test system: SK-MEL-2 melanoma
UACC-62 melanoma = test system: UACC-62 melanoma

CCOC(=O)c1ccc2[nH]c(Cc3[nH]c4ccc(C(=O)OCC)cc4c3C)c(C)c2c1
GI50 ([…]-0 renal): 1.4 µM | TGI (786-0 renal): 11.7 µM | GI50 (A498 renal): 2.36 µM | TGI (A498 renal): 10.6 µM | GI50 (A549 NSCLC): 1.92 µM | TGI (A549 NSCLC): 14.6 µM | GI50 (ACHN renal): 1.8 µM | TGI (ACHN renal): 8.24 µM | GI50 (CCRF-CEM leukemia): 0.763 µM | TGI (CCRF-CEM leukemia): 11.7 µM | GI50 (COLO 205 colon): 0.344 µM | TGI (COLO 205 colon): 14.5 µM | GI50 (DU-145 prostate): 3.05 µM | TGI (DU-145 prostate): 17 µM | GI50 (EKVX NSCLC): 4.62 µM | TGI (EKVX NSCLC): 18.2 µM | GI50 (HCC-2998 colon): 1.56 µM | TGI (HCC-2998 colon): 16.1 µM | GI50 (HCT-116 colon): 0.472 µM | TGI (HCT-116 colon): 2.41 µM | GI50 (HCT-15 colon): 0.0286 µM | TGI (HCT-15 colon): 6.55 µM | GI50 (HOP-92 NSCLC): 2.07 µM | TGI (HOP-92 NSCLC): 7.98 µM | GI50 (K-562 leukemia): 0.356 µM | TGI (K-562 leukemia): 12.3 µM | GI50 (LOX IMVI melanoma): 0.481 µM | TGI (LOX IMVI melanoma): 1.91 µM | GI50 (MALME-3M melanoma): 1.63 µM | TGI (MALME-3M melanoma): 6.41 µM | GI50 (MDA-MB-231 breast): 0.601 µM | TGI (MDA-MB-231 breast): 12.1 µM | GI50 (MDA-MB-435 melanoma): 4.68 µM | TGI (MDA-MB-435 melanoma): 61.4 µM | GI50 (MDA-MB-468 breast): 1.08 µM | TGI (MDA-MB-468 breast): 7.27 µM | GI50 (MOLT-4 leukemia): 0.0514 µM | TGI (MOLT-4 leukemia): 0.274 µM | GI50 (NCI-H322M lung): 4.26 µM | TGI (NCI-H322M lung): 19.7 µM | GI50 (NCI-H460 NSCLC): 0.281 µM | TGI (NCI-H460 NSCLC): 2.07 µM | GI50 (NCI-H522 lung): 1.69 µM | TGI (NCI-H522 lung): 12.1 µM | GI50 (OVCAR-3 ovarian): 2.97 µM | TGI (OVCAR-3 ovarian): 12.7 µM | GI50 (OVCAR-4 ovarian): 3.11 µM | TGI (OVCAR-4 ovarian): 14.3 µM | GI50 (OVCAR-5 ovarian): 2.73 µM | TGI (OVCAR-5 ovarian): 32.1 µM | GI50 (OVCAR-8 ovarian): 1.56 µM | TGI (OVCAR-8 ovarian): 11.1 µM | GI50 (SF-295 CNS): 0.464 µM | TGI (SF-295 CNS): 4.59 µM | GI50 (SF-539 CNS): 1.3 µM | TGI (SF-539 CNS): 7.85 µM | GI50 (SK-MEL-28 melanoma): 3.4 µM | TGI (SK-MEL-28 melanoma): 23.1 µM | GI50 (SK-MEL-5 melanoma): 1.23 µM | TGI (SK-MEL-5 melanoma): 2.8 µM | GI50 (SK-OV-3 ovarian): 4.64 µM | TGI (SK-OV-3 ovarian): 18.6 µM | GI50 (SN12C renal): 3.08 µM | TGI (SN12C renal): 12.6 µM | GI50 (SNB-19 CNS): 5.4 µM | TGI (SNB-19 CNS): 21.3 µM | GI50 (T-47D breast): 2.88 µM | TGI (T-47D breast): 9.2 µM | GI50 (TK-10 renal): 0.498 µM | TGI (TK-10 renal): 11.4 µM | GI50 (U251 glioblastoma): 1.13 µM | TGI (U251 glioblastoma): 6.01 µM | GI50 (UACC-257 melanoma): 9.7 µM | TGI (UACC-257 melanoma): 25.3 µM | GI50 (UO-31 renal): 3.36 µM | TGI (UO-31 renal): 18.9 µM

Nc1nc(F)nc2c1ncn2C1OC(COP(=O)(O)O)C(O)C1O (centres undefined)
GI50 ([…]-0 renal): 33 µM | GI50 (A498 renal): 31.2 µM | GI50 (A549 NSCLC): 36.1 µM | GI50 (ACHN renal): 32.9 µM | GI50 (BT-549 breast): 20 µM | TGI (BT-549 breast): 96.9 µM | GI50 (CAKI-1 renal): 25.3 µM | GI50 (CCRF-CEM leukemia): 1.91 µM | TGI (CCRF-CEM leukemia): 3.57 µM | GI50 (DU-145 prostate): 21.6 µM | TGI (DU-145 prostate): 93.8 µM | GI50 (HCT-116 colon): 19.3 µM | GI50 (HCT-15 colon): 39.9 µM | GI50 (HL-60(TB) leukemia): 3.71 µM | TGI (HL-60(TB) leukemia): 11 µM | GI50 (HOP-62 NSCLC): 5.8 µM | TGI (HOP-62 NSCLC): 21.2 µM | GI50 (HOP-92 NSCLC): 30.9 µM | GI50 (HS 578T breast): 55 µM | GI50 (K-562 leukemia): 58.4 µM | GI50 (LOX IMVI melanoma): 45.4 µM | GI50 (M14 melanoma): 8.5 µM | TGI (M14 melanoma): 37.3 µM | GI50 (MALME-3M melanoma): 25.1 µM | GI50 (MCF7 breast): 41.2 µM | GI50 (MDA-MB-231 breast): 32.9 µM | GI50 (MDA-MB-435 melanoma): 49.9 µM | GI50 (MDA-MB-468 breast): 71 µM | GI50 (MOLT-4 leukemia): 1.53 µM | TGI (MOLT-4 leukemia): 2.89 µM | GI50 (NCI-H23 lung): 11.7 µM | TGI (NCI-H23 lung): 32.9 µM | GI50 (NCI-H522 lung): 59.7 µM | GI50 (NCI/ADR-RES ovarian): 4.74 µM | TGI (NCI/ADR-RES ovarian): 41.2 µM | GI50 (OVCAR-3 ovarian): 58.4 µM | GI50 (OVCAR-5 ovarian): 57.5 µM | GI50 (OVCAR-8 ovarian): 3.16 µM | TGI (OVCAR-8 ovarian): 15.8 µM | GI50 (PC-3 prostate): 37.6 µM | GI50 (SF-268 CNS): 48.3 µM | GI50 (SK-MEL-2 melanoma): 51.7 µM | TGI (SK-MEL-2 melanoma): 84.5 µM | GI50 (SK-MEL-28 melanoma): 7.83 µM | GI50 (SK-OV-3 ovarian): 24 µM | GI50 (SN12C renal): 4.96 µM | TGI (SN12C renal): 21.8 µM | GI50 (SNB-19 CNS): 20.6 µM | GI50 (T-47D breast): 83 µM | GI50 (U251 glioblastoma): 90.2 µM | GI50 (UACC-62 melanoma): 23.2 µM | TGI (UACC-62 melanoma): 54.1 µM | GI50 (UO-31 renal): 30.6 µM

From PubChem BioAssay (NCI)
